The nature of series [1]: Stability in RPMI cell culture media at 2 mM by HPLC analysis. The series is classed as physicochemical. To be noted: 2000 µM.
Series [2] has as its system T98G. In words: Cytostatic activity against human T98G cells assessed as reduction in cell viability after 48 hrs by MTT assay. The class given is functional, cell-based. Background: Tetrazolium dyes change colour on reduction, which living cells bring about.
Series [3] relates to T47D. Kind of series: Cytostatic activity against human T47D cells assessed as reduction in cell viability after 48 hrs by MTT assay. The class given is functional, cell-based.
A short description of series [4]: Selectivity index, ratio of IC50 for human MRC5 cells to IC50 for human U87MG cells. The class given is toxicity. To be noted: MRC5 cells and U87MG cells, read-out: Ratio IC50.
Series [5] relates to U-118-MG. Kind of series: Cytostatic activity against human U118MG cells assessed as reduction in cell viability after 48 hrs by MTT assay. The class given is functional, cell-based.
Series [6] concerns MRC5. In words: Cytostatic activity against human MRC5 cells assessed as reduction in cell viability after 48 hrs by MTT assay. The class given is functional, cell-based. Particulars: MRC5, 48 h.
A short description of series [7]: Half life in RPMI/FBS cell culture media 9:1 (v/v) assessed as cumulative concentration of metabolites of known anticancer activity at 2 mM by HPLC analysis. The series is classed as ADME. Particulars: 2000 µM.
A short description of series [8]: Half life in human serum at 2 mM by HPLC analysis. The series is classed as ADME, cell-free.
Series [9] in a line: Selectivity index, ratio of IC50 for human MRC5 cells to IC50 for human U118MG cells. The class given is toxicity. Particulars: MRC5 cells and U118MG cells, read-out: Ratio IC50.
Series [10] in a line: Selectivity index, ratio of IC50 for human MRC5 cells to IC50 for human T98G cells. The series is classed as toxicity. To be noted: MRC5 cells and T98G cells, read-out: Ratio IC50.
The test system of series [11] is Caco-2. In words: Cytostatic activity against human Caco2 cells assessed as reduction in cell viability after 48 hrs by MTT assay. The series is classed as functional, cell-based. Particulars: Caco-2, 48 h.
Series [12] is described as follows: Half life in RPMI/FBS cell culture media 9:1 (v/v) at 2 mM by HPLC analysis. The class given is physicochemical. To be noted: cattle.
Series [13] has as its system HeLa. In words: Cytostatic activity against human HeLa cells assessed as reduction in cell viability after 48 hrs by MTT assay. The series is classed as functional, cell-based.
The subject of series [14] is U-87 MG. In words: Cytostatic activity against human U87MG cells assessed as reduction in cell viability after 48 hrs by MTT assay. The class given is functional, cell-based, U-87MG ATCC.

pIC50: −log10 of the molar value.

In general, pIC50 refers to the IC50 on a negative log10 scale, so that one unit is a factor of ten. The half-life is how long it takes for the measured level to halve. A low value points to fast loss. With `CCOC(=O)C[n+]1cccc(OP(=O)([O-])OC[C@H]2O[C@@H](n3cc(F)c(=O)[nH]c3=O)C[C@@H]2OC(=O)c2ccccc2)c1`, the Stability entry in series [1] was “Stable”. The pIC50 in series [2] was 5.80; in series [3], 4.90; in series [5] it was 5.81; in series [6] it was 5.07; in series [11] it was 5.58; in series [13], 5.21. The pIC50 in series [14] is 6.24. Further, the selectivity ratio came out at 15 in series [4], 6 in series [9] and 5 in [10]. For the same compound, the t1/2 in series [7] was determined as 8.6 h. In addition, the values for the half-life at 2000 µM in series [8] and in [12] were 1.4 h and 1.1 h, respectively.

Take `C[N+](C)(CCOP(=O)([O-])OC[C@H]1O[C@@H](n2cc(F)c(=O)[nH]c2=O)C[C@@H]1OC(=O)c1ccccc1)Cc1ccccc1`: the Stability entry in series [1] is listed as “Stable”. Also, the pIC50 in series [2] is 5.70; in series [3], 4.48; in [5], 5.43; in series [6] it was 6.22; in series [11] it was 4.93; in [13] it was 5.82. Moreover, the pIC50 in series [14] is 6.21. Further, the selectivity ratio in series [4] is 1; in [9] it was under 1; in [10] it was under 1. The half-life at 2000 µM is 96.3 h in [8] and 54 h in [12].

Consider `CCOC(=O)C[n+]1cccc2cc(OP(=O)([O-])OC[C@H]3O[C@@H](n4cc(F)c(=O)[nH]c4=O)C[C@@H]3OC(=O)c3ccccc3)ccc21`, for which, in series [1], the Stability entry was “Stable”. Further, the pIC50 in [2] was 4.89; in series [3], 4.67; in series [5], 6.12; in series [6] it was 4.46; in series [11], 4.54; in [13], 6.22. Also, the pIC50 in series [14] was 6.28. For the same compound, the values for the selectivity ratio in series [4], in series [9] and in [10] were 66, 46 and 3, respectively. The t1/2 in [7] was 15.6 h. Besides, the half-life at 2000 µM was 5.9 h in series [8] and 2 h in series [12].

As for `O=C(O[C@H]1C[C@H](n2cc(F)c(=O)[nH]c2=O)O[C@@H]1COP(=O)(O)Oc1cccnc1)c1ccccc1`, in [1], the Stability entry is “Stable”. Moreover, the pIC50 was 5.89 in series [2]; 4.84 in series [3]; 6.04 in series [5]; 4.81 in series [6]; 5.60 in series [11]; 5.16 in series [13]. In addition, in series [14], the pIC50 is 6.15. For the same compound, the selectivity ratio in [4] stood at 22; in [9] it was 17; in series [10], 12. In addition, the half-life at 2000 µM in series [8] was 17.8 h; in [12] it was 6.7 h.
